Assay results from patent publication US4716162A, “Fused 5 ring heterocyclic compounds, their preparation, and their anti-arrhythmic and diuretic use” (Sankyo Company, Limited, priority 1984, dated 1987).
Values after ≈ are worked out from the molar mass of the structure shown. Counter-ions that a name gives are not always drawn.

test system: heart beat rate in the ventricle of mice placed in chloroform gas; assay: Anti-arrhythmic effect, Block's method (chloroform-induced, ventricular heart beat rate by electrocardiogram); assay type: in vivo, mice (ICR strain); details: Mus musculus, ip, read-out: ED50 % (effective = heart beat rate in the ventricle reduced to less than 400 beats/minute)
Experimental: Test procedures: (Block's method)
Onto a 2 liter desiccator were placed 150 ml of chloroform and this was stirred with a magnetic stirrer while being heating by an incandescent lamp. When the desiccator was saturated with chloroform gas, mice (ICR strain, body weight between 20 and 25 g) were placed therein for 2 minutes and then the chest was opened. Silver dipolar electrodes were contacted with the ventricles and electrocardiograms were taken for 1 minute. Within 10-20 minutes, the test compound was administered intraperitoneally in a carboxymethyl-cellulose solution as vehicle.

CCC[C@@]12CCC[C@H]3[C@H](N)Cc4c(n(c5ccccc45)C(=O)C1)[C@H]32 (relative stereo) [Compound No. 96] was tested. Which ED50 did it give?
The ED50 was 3.6 mg/kg.

How did the ED50 turn out when CC[C@@]12CCC[C@H]3[C@H](N)Cc4c(n(c5ccccc45)C(=O)C1)[C@H]32 (relative stereo) [Compound No. 110] was run?
The ED50 was 14 mg/kg.

How did the ED50 turn out when CC[C@]12CCC[C@@H]3[C@H]1c1c(c4cc(O)ccc4n1C(=O)C2)C[C@H]3C(=O)NNCCN1CCCC1 (relative stereo) [Compound No. 146, 7-Hydroxy-12aβ-ethyl-4β-{3-[2-(1-pyrrolidinyl)ethyl]carbazoyl}-2,3,3aβ,4α,5,12,12aβ,12bβ-octahydrobenzo[d,e]indolo[3,2,1-i,j]quinolin-11(1H)-one hemihydrate] was run?
The ED50 was 22.5 mg/kg.

With N[C@@H]1Cc2c3n(c4ccc(O)cc24)C(=O)C[C@@]2(c4ccccc4)CCC[C@@H]1[C@@H]32 (relative stereo) [Compound No. 162] as the compound, how does the ED50 read?
Its ED50 is 12 mg/kg.

How did the ED50 turn out when CC[C@@]12CCC[C@H]3[C@H](N)Cc4c(n(c5ccc(O)cc45)C(=O)C1)[C@H]32 (relative stereo) [Compound No. 197, 4β-Amino-12aβ-ethyl-7-hydroxy-2,3,3aβ,4α,5,12,12aβ,12bβ-octahydrobenzo[d,e]indolo[3,2,1-i,j]quinolin-11(1H)-one hemihydrate] was run?
Its ED50 is 22.5 mg/kg.

For CCC[C@@]12CCC[C@H]3[C@H](N)Cc4c(n(c5ccc(O)cc45)C(=O)C1)[C@H]32 (relative stereo) [Compound No. 198], which ED50 is on record?
Its ED50 is 4.2 mg/kg.

test system: male mice of the DDY strain; assay: Diuretic effect: urine volume and sodium ion concentration by the filter paper method (Mineshita et al); assay type: in vivo; details: 100 mg/kg p.o.
Experimental: The diuretic test was performed on groups of 5 male mice of the DDY strain, each weighing between 26 and 30 g. The test solutions were prepared by dissolving the test compounds in physiological saline containing 0.3% w/v carboxymethylcellulose and were administered orally to the animals. The urine volume and sodium ion concentration were estimated by the filter paper method [Mineshita et al: Pharmacometrics, 4, 33 (1970)]. In Table 13, the increase of the urine volume and sodium ion concentration are shown as a percentage of the values of a control group to which no active compound was administered.

What does the source list for O=C(O)[C@@H]1C=C2c3ccccc3N3C(=O)C[C@H]4CC[C@@H]1[C@H]4[C@H]23 (relative stereo) [Compound No. 14, 1,2,2aβ,3α,11,11aβ,11bβ,11cα-Octahydro-10-oxo-10H-cyclopenta[d,e]indolo[3,2,1-i,j]quinoline-3α-carboxylic acid]?
Urine Volume (increase as a percentage of the values of a control group): 231%; δNa^+ (increase of sodium ion concentration as a percentage of the values of a control group): 245%

O=C(O)[C@@H]1C=C2c3cc(Br)ccc3N3C(=O)C[C@H]4CC[C@@H]1[C@H]4[C@H]23 (relative stereo) [Compound No. 18] was tested. Which “Urine Volume (increase as a percentage of the values of a control group)” value did it give?
The value was 86%.

And the “δNa^+ (increase of sodium ion concentration as a percentage of the values of a control group)” value?
The value was 168%.

test system: rats with ischemic brains; assay: Improvement of brain function: time until recovery of the righting reflex in rats with ischemic brains; assay type: in vivo, male rats of the Wistar strain; details: 10 mg/kg i.p.
Experimental: A test for recovery of brain function was performed using rats with ischemic brains. The bilaterial carotid arteries of male rats of the Wistar strain were ligated under anesthesia with thiopental (50 mg/kg, intraperitoneally) and the test compounds and a 0.5% w/v carboxymethylcellulose solution (vehicle) were intraperitoneally administered at the same time. The time until recovery of the righting relex was measured to give an index of the brain function. […] The known compound, Pentoxifylline, was tested in the same way, for comparison.

O=C(O)[C@@H]1C=C2c3cc(Br)ccc3N3C(=O)C[C@H]4CC[C@@H]1[C@H]4[C@H]23 (relative stereo) [Compound No. 18] was tested. Which “Ratio to Control (time until recovery of the righting reflex)” value (“Ratio to Control” below) did it give?
Its value is 0.84.

same assay, conditions: 30 mg/kg i.p.

For O=C(O)[C@@H]1C=C2c3cc(Br)ccc3N3C(=O)C[C@H]4CC[C@@H]1[C@H]4[C@H]23 (relative stereo) [Compound No. 18], which “Ratio to Control” value is on record?
The value was 0.68.

Which “Ratio to Control” value does the source give for CC(=O)CCCCn1c(=O)c2c(ncn2C)n(C)c1=O [Pentoxifylline, reference compound] here?
Its value is 0.82.

test system: arrhythmias induced by ischemic cardiac dysfunction caused by ligation of the coronary arteries of a perfusing heart; assay: Anti-arrhythmic effect: protection against arrhythmias induced by ischemia (coronary artery ligation and re-perfusion) of a perfusing heart, method of Opie et al; design: species or system male rats of Sprague-Dawley strain; details: Rattus norvegicus, read-out: ED70 (concentration required for 70% suppression of the arrhythmias during ligation and after re-perfusion)
Experimental: The test was performed according to the method of L. H. Opie et al [Cardiovascular Research, 12, 212 (1978)] using male rats of Sprague-Dawley strain weighing between 230 and 330 g. The antiarrhythmic effect was estimated by the ability of the test compound administered intravascularly to protect against the arrhythmias induced by ischemic cardiac dysfunction caused by ligation of the coronary arteries of a perfusing heart.
The test compounds were dissolved in dimethyl sulfoxide, and the required amount of injectible solution was prepared by mixing this with Krebs-Henseleit solution. The degree of protecting effect is reported as the concentration (ED70) required for 70% suppression of the arrhythmias during ligation and after re-perfusion.

How did the EC70 turn out when COC(=O)[C@@H]1Cc2c3n(c4ccccc24)C(=O)C[C@H]2CC[C@@H]1[C@@H]32 (relative stereo) [Compound No. 35, Methyl 1,2,2aβ,3α,4,11,11aβ,11bβ-octahydro-10-oxo-10H-cyclopenta[d,e]indolo[3,2,1-i,j]quinoline-3β-carboxylate] was run?
The EC70 was 4.2 µg/mL (≈ 13.6 µM).

same assay, conditions: rat perfusing heart, test compound administered intravascularly; read-out: ED70 (concentration required for 70% suppression of the arrhythmias during ligation and after re-perfusion)

C[C@@]12C3=C[C@@H](N)[C@@H]4CC[C@H](CC(=O)N1c1ccccc13)[C@@H]42 (relative stereo) [Compound No. 26, 3β-Amino-1,2,2aβ,3α,11,11aβ,11bβ,11cα-octahydro-11cα-methylcyclopenta[d,e]indolo[3,2,1-i,j]quinolin-10-one hydrochloride] was tested. Which EC70 did it give?
Its EC70 is 0.9 µg/mL.

With N[C@@H]1Cc2c3n(c4ccccc24)C(=O)C[C@H]2CC[C@@H]1[C@@H]32 (relative stereo) [Compound No. 55, 3β-Amino-1,2,2aβ,3α,4,11,11aβ,11bβ-octahydrocyclopenta[d,e]indolo[3,2,1-i,j]quinolin-10-one maleate] as the compound, how does the EC70 read?
The EC70 was 0.64 µg/mL.

How did the EC70 turn out when CC[C@@]12CC[C@H]3[C@H](N)Cc4c(n(c5ccccc45)C(=O)C1)[C@H]32 (relative stereo) [Compound No. 59] was run?
Its EC70 is 0.23 µg/mL (≈ 0.781 µM).

For CN(C)[C@@H]1Cc2c3n(c4ccccc24)C(=O)C[C@H]2CC[C@@H]1[C@@H]32 (relative stereo) [Compound No. 65, 1,2,2aβ,3α,4,11,11aβ,11bβ-Octahydro-3β-dimethylaminocyclopenta[d,e]indolo[3,2,1-i,j]quinolin-10-one maleate], which EC70 is on record?
The EC70 was 0.3 µg/mL.

With N[C@@H]1Cc2c3n(c4ccccc24)C(=O)C[C@H]2CCC[C@@H]1[C@@H]32 (relative stereo) [Compound No. 106, 4β-amino-2,3,3aβ,4α,5,12,12aβ,12bβ-octahydrobenzo[d,e]indolo[3,2,1-i,j]quinolin-11(1H)-one maleate] as the compound, how does the EC70 read?
Its EC70 is 1 µg/mL.

CC[C@@]12CCC[C@H]3[C@H](N)Cc4c(n(c5ccccc45)C(=O)C1)[C@H]32 (relative stereo) [Compound No. 110] was tested. Which EC70 did it give?
The EC70 was 0.16 µg/mL (≈ 0.519 µM).

How did the EC70 turn out when N[C@@H]1Cc2c3n(c4ccccc24)C(=O)C[C@H]2CCCC[C@@H]1[C@@H]32 (relative stereo) [Compound No. 228] was run?
Its EC70 is 0.9 µg/mL (≈ 3.06 µM).

How did the EC70 turn out when CC(C)N(CCC(C(N)=O)(c1ccccc1)c1ccccn1)C(C)C (centres unmarked) [Disopyramide, reference compound] was run?
The EC70 was 10 µg/mL (≈ 29.5 µM).

CCN(CC)CC(=O)Nc1c(C)cccc1C [Lidocaine, reference compound] was tested. Which EC70 did it give?
Its EC70 is 5 µg/mL (≈ 21.3 µM).
